This test addresses T1, Dihydrofolate reductase (Pneumocystis jirovecii (strain RU7), UniProt A0A0W4ZHR8).
T1 sequence (A0A0W4ZHR8 whole entry): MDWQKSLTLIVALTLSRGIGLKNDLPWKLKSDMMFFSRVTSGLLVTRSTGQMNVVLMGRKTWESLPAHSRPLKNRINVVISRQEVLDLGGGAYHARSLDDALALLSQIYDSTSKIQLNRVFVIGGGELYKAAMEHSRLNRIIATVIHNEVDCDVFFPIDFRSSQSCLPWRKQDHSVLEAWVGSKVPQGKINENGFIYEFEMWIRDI
The test is described as follows: Not found.
From the text: Not found

The IC50 is the concentration that gives 50% inhibition. Low readings indicate greater potency, high ones weaker potency. `COc1ccccc1Sc1sc2nc(N)nc(N)c2c1C` [US11001595, Compound 2] came in with an IC50 of 177 nM.
As for `COc1ccc(Sc2sc3nc(N)nc(N)c3c2C)cc1` [US11001595, Compound 4], the figure is 252 nM.

The record behind these values is BindingDB's records for patent US11001595 (Duquesne University of The Holy Spirit, 2021).
